Read-outs that look alike come from different tables or passages of the source.
Experiments:
FKBP = FKBP (Homo sapiens, UniProt P62942); assay: FKBP competitive binding assay based on fluorescence polarization (FP); details: competitive FP binding, methods of Example 2.5
Method: A Competitive Binding FP Assay is described in detail in WO99/36553 and WO96/41865. That assay permits the in vitro measurement of an IC50 value for a given compound which reflects its ability to bind to an FKBP-protein in competition with a labeled FKBP ligand, such as, for example, FK506.
(§1) A diverse group of C7-modified 28-epirapalogs were prepared as described in Example 4.

murine splenocyte = murine splenocyte assay for immunosuppressive activity; type: cell-based; details: mouse splenocyte assay, methods of Example 2.5, read-out: Splenocyte IC50
Method: 3. Conventional murine splenocyte assay for immunosuppressive activity.
as §1

[1] = target: T1, transcriptional switch components containing FKBP and 2098L mutant FRB domains (Homo sapiens, UniProt P42345+P62942); assay: transcription assay in engineered HD1080 cells expressing SEAP (txn 2098L); type: cell-based
T1 construct: transcriptional switchcomponents containing FKBP and 2098L mutant FRB domains, respectively; fused on or other part: The two switch components are separate chimeric proteins; Neither is given for this cell line
Description: The ability of the rapalogs to multimerize chimeric proteins may be measured in cell-based assays by measuring the occurrence of an event triggered by such multimerization. For instance, one may use cells containing and capable of expressing DNA encoding a first chimeric protein comprising one or more FKBP-domains and one or more effector domains as well as DNA encoding a second chimeric protein containing an FRB domain and one or more effector domains capable, upon multimerization, of actuating a biological response. We prefer to use cells which further contain a reporter gene under the transcriptional control of a regulatory element (i.e., promoter) which is responsive to the multimerization of the chimeric proteins. The design and preparation of illustrative components and their use in so engineered cells is described in WO99/36553 and WO96/41865 and the other international patent applications referred to in this and the foregoing section. (See also W099/10510 for additional guidance on the design, assembly and delivery of nucleic acids to render cells and animals responsive to rapalogs of interest and for additional guidance on applications of such systems.) The cells are grown or maintained in culture. A rapalog is added to the culture medium and after a suitable incubation period (to permit gene expression and secretion, e.g. several hours or overnight) the presence of the reporter gene product is measured. Positive results, i.e., multimerization, correlates with transcription of the reporter gene as observed by the appearance of the reporter gene product. The reporter gene product may be a conveniently detectable protein (e.g. by ELISA) or may catalyze the production of a conveniently detectable product (e.g. colored). Materials and methods for producing appropriate cell lines for conducting such assays are disclosed in the international patent applications cited above in this section.
2. EC50 values of the various compounds was measured in a transcription assay using genetically engineered HD1080 cells which constitutively express transcriptional switch components containing FKBP and 2098L mutant FRB domains, respectively and which regulatably express secreted alkaline phosphatase (SEAP) in the presence of a compound which multimerizes the switch components. The assay is a literature assay. See WO 99/36553, e.g. Example 12, pages 120–121 (& FIG. 2D) […]

[2] = cellular transcription assay, methods of Example 2.5; read-out: TXN 2098L EC50
[3] = read-out: TXN 2098L EC50; cellular transcription assay, methods of Example 2.5

Chain of FKBP (P62942 whole entry): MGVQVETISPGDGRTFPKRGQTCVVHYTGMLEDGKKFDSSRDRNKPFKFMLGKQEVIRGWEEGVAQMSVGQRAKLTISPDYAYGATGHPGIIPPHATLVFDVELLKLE
T1 sequence (P62942 2-108 limits assumed, stated change not applied, other chains not shown): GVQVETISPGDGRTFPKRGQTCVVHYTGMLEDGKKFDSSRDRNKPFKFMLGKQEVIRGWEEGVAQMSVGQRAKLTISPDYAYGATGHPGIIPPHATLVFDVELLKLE

Row | Structure (SMILES) | IC50 (FKBP; read-out: FKBP IC50) [nM] | IC50 (murine splenocyte) [nM] | EC50 [1, 2] [nM] | IC50 (murine splenocyte; Mus musculus, Splenocyte) [nM] | TXN 2098L peak relative to rapamycin peak ([1]; superscript mark on EC50 cell) | IC50 (FKBP; FKBP IC50 (nM)) [nM] | EC50 [1, 3] [nM]
1 | COc1ccccc1COC1CC2CCC(C)C(O)(O2)C(=O)C(=O)N2CCCCC2C(=O)OC(C(C)CC2CCC(O)C(OC)C2)CC(=O)C(C)C=C(C)C(O)C(OC)C(=O)C(C)CC(C)C=CC=CC=C1C (single isomer, unassigned) [28-epi-7S-2′-methoxybenzyloxy] | 33 | 25 | 15 |  |  |  | 
2 | COC1CC(CC(C)C2CC(=O)C(C)C=C(C)C(O)C(OC)C(=O)C(C)CC(C)C=CC=CC=C(C)C(N(C)C(=O)OCC(C)C)CC3CCC(C)C(O)(O3)C(=O)C(=O)N3CCCCC3C(=O)O2)CCC1O (single isomer, unassigned) [28-epi-7S-N-Me-isobutylcarbamate] | 19 | 1380 | 40 |  |  |  | 
3 | CCCS(=O)(=O)N(C)C1CC2CCC(C)C(O)(O2)C(=O)C(=O)N2CCCCC2C(=O)OC(C(C)CC2CCC(O)C(OC)C2)CC(=O)C(C)C=C(C)C(O)C(OC)C(=O)C(C)CC(C)C=CC=CC=C1C (single isomer, unassigned) [28-epi-7S-N-Me-propanesulfonamide] | 19 |  | 35 | 2630 | (+) (peak was >125% rapamycin peak) |  | 
4 | CCOC(=O)N(C)C1CC2CCC(C)C(O)(O2)C(=O)C(=O)N2CCCCC2C(=O)OC(C(C)CC2CCC(O)C(OC)C2)CC(=O)C(C)C=C(C)C(O)C(OC)C(=O)C(C)CC(C)C=CC=CC=C1C (single isomer, unassigned) [28-epi-7S-N-methyl-ethylcarbamate] | 30 | 2290 | 12 |  | (−) (peak was <80% rapamycin peak) |  | 
5 | COC1CC(CC(C)C2CC(=O)C(C)C=C(C)C(O)C(OC)C(=O)C(C)CC(C)C=CC=CC=C(C)C(OCc3ccccc3)CC3CCC(C)C(O)(O3)C(=O)C(=O)N3CCCCC3C(=O)O2)CCC1O (single isomer, unassigned) [28-epi-7S-benzyloxy] | 70 | 93 | 18 |  |  |  | 
6 | CCN([C@@H]1C[C@@H]2CC[C@@H](C)[C@@](O)(O2)C(=O)C(=O)N2CCCC[C@H]2C(=O)O[C@H]([C@H](C)C[C@@H]2CC[C@@H](O)[C@H](OC)C2)CC(=O)[C@H](C)/C=C(\C)[C@H](O)[C@@H](OC)C(=O)[C@H](C)C[C@H](C)/C=C/C=C/C=C/1C)S(C)(=O)=O [28-epi-7R-N-Et-methanesulfonamide] |  |  |  | 189 | (+) (peak was >125% rapamycin peak) | 31 | 8
7 | CO[C@@H]1C[C@H](C[C@@H](C)[C@@H]2CC(=O)[C@H](C)/C=C(\C)[C@H](O)[C@@H](OC)C(=O)[C@H](C)C[C@H](C)/C=C/C=C/C=C(\C)[C@H](N(C)C(=O)OCc3ccccc3)C[C@@H]3CC[C@@H](C)[C@@](O)(O3)C(=O)C(=O)N3CCCC[C@H]3C(=O)O2)CC[C@H]1O [28-epi-7R-N-Me-benzylcarbamate] | 163 |  | 8 | 1150 | (−) (peak was <80% rapamycin peak) |  | 
8 | CO[C@@H]1C[C@H](C[C@@H](C)[C@@H]2CC(=O)[C@H](C)/C=C(\C)[C@H](O)[C@@H](OC)C(=O)[C@H](C)C[C@H](C)/C=C/C=C/C=C(\C)[C@H](N(C)S(C)(=O)=O)C[C@@H]3CC[C@@H](C)[C@@](O)(O3)C(=O)C(=O)N3CCCC[C@H]3C(=O)O2)CC[C@H]1O [28-epi-7R-N-Me-methanesulfonamide] | 37 |  | 8 | 166 |  |  | 
9 | CO[C@@H]1C[C@H](C[C@@H](C)[C@@H]2CC(=O)[C@H](C)/C=C(\C)[C@H](O)[C@@H](OC)C(=O)[C@H](C)C[C@H](C)/C=C/C=C/C=C(\C)[C@H](N(C)S(=O)(=O)c3ccc(C)cc3)C[C@@H]3CC[C@@H](C)[C@@](O)(O3)C(=O)C(=O)N3CCCC[C@H]3C(=O)O2)CC[C@H]1O [28-epi-7R-N-Me-p-toluenesulfonamide] |  |  |  | 12 |  | 34 | 8
10 | CO[C@@H]1C[C@H](C[C@@H](C)[C@@H]2CC(=O)[C@H](C)/C=C(\C)[C@H](O)[C@@H](OC)C(=O)[C@H](C)C[C@H](C)/C=C/C=C/C=C(\C)[C@H](N(C)C(=O)Oc3ccc(C)cc3)C[C@@H]3CC[C@@H](C)[C@@](O)(O3)C(=O)C(=O)N3CCCC[C@H]3C(=O)O2)CC[C@H]1O [28-epi-7R-N-Me-p-tolylcarbamate] | 119 | 393 | 70 |  |  |  | 
11 | C=CCO[C@@H]1C[C@@H]2CC[C@@H](C)[C@@](O)(O2)C(=O)C(=O)N2CCCC[C@H]2C(=O)O[C@H]([C@H](C)C[C@@H]2CC[C@@H](O)[C@H](OC)C2)CC(=O)[C@H](C)/C=C(\C)[C@H](O)[C@@H](OC)C(=O)[C@H](C)C[C@H](C)/C=C/C=C/C=C/1C [28-epi-7R-allyloxy] |  |  |  | 3400 |  | 11 | 25
12 | COC1CC(CC(C)C2CC(=O)C(C)C=C(C)C(O)C(OC)C(=O)C(C)CC(C)C=CC=CC=C(C)C(NC(=O)OCc3ccccc3)CC3CCC(C)C(O)(O3)C(=O)C(=O)N3CCCCC3C(=O)O2)CCC1O (stereo not drawn) [28-epi-7R-benzylcarbamate] | 12 | 2260 | 9 |  | (+) (peak was >125% rapamycin peak) |  | 
13 | CCCCS(=O)(=O)N[C@@H]1C[C@@H]2CC[C@@H](C)[C@@](O)(O2)C(=O)C(=O)N2CCCC[C@H]2C(=O)O[C@H]([C@H](C)C[C@@H]2CC[C@@H](O)[C@H](OC)C2)CC(=O)[C@H](C)/C=C(\C)[C@H](O)[C@@H](OC)C(=O)[C@H](C)C[C@H](C)/C=C/C=C/C=C/1C [28-epi-7R-butanesulfonamide] | 11 |  | 20 | 0.16 |  |  | 
14 | COc1ccc(C2CC3CCC(C)C(O)(O3)C(=O)C(=O)N3CCCCC3C(=O)OC(C(C)CC3CCC(O)C(OC)C3)CC(=O)C(C)C=C(C)C(O)C(OC)C(=O)C(C)CC(C)C=CC=CC=C2C)c(OC)c1 (stereo not drawn) [28-epi-7R-dimethoxyphenyl] | 54 | 22 to 28 | 26 |  |  |  | 
15 | COC1CC(CC(C)C2CC(=O)C(C)C=C(C)C(O)C(OC)C(=O)C(C)CC(C)C=CC=CC=C(C)C(NS(=O)(=O)N(C)C)CC3CCC(C)C(O)(O3)C(=O)C(=O)N3CCCCC3C(=O)O2)CCC1O (stereo not drawn) [28-epi-7R-dimethylsulfamide] | 29 | 1840 | 20 |  | (+) (peak was >125% rapamycin peak) |  | 
16 | CCOC(=O)N[C@@H]1C[C@@H]2CC[C@@H](C)[C@@](O)(O2)C(=O)C(=O)N2CCCC[C@H]2C(=O)O[C@H]([C@H](C)C[C@@H]2CC[C@@H](O)[C@H](OC)C2)CC(=O)[C@H](C)/C=C(\C)[C@H](O)[C@@H](OC)C(=O)[C@H](C)C[C@H](C)/C=C/C=C/C=C/1C [28-epi-7R-ethylcarbamate] |  |  |  | > 5000 | (+) (peak was >125% rapamycin peak) | 7.5 | 9
17 | CO[C@@H]1C[C@H](C[C@@H](C)[C@@H]2CC(=O)[C@H](C)/C=C(\C)[C@H](O)[C@@H](OC)C(=O)[C@H](C)C[C@H](C)/C=C/C=C/C=C(\C)[C@H](NS(C)(=O)=O)C[C@@H]3CC[C@@H](C)[C@@](O)(O3)C(=O)C(=O)N3CCCC[C@H]3C(=O)O2)CC[C@H]1O [28-epi-7R-methanesulfonamide] | 7.2 |  | 24 | 91 |  |  | 

Reference: patent publication US7196192B2, “28-epirapalogs” (Ariad Gene Therapeutics, Inc., priority 1999, dated 2007)
